Here are results for 30 compounds from patent US20030186967A1, “Acylresorcinol derivatives are selective vitronectin receptor inhibitors” (American Home Products Corporation, priority 1998, published 2003).

The experiment concerns the target T1, Vitronectin receptor αVβ3 (Homo sapiens, UniProt P05106+P06756).
T1 construct: expressed in transfected cells; host or cells: 512P5 cells (plasma membrane preparation)
Put plainly: Vitronectin Receptor αVβ3 Binding Assay. The conditions noted are these: read-out: VnR (IC50μM).

The structures appear in SMILES notation. pIC50: −log10 of the molar value. Where only a bound is given, the exact number is not on record here.

T1 sequence (P06756 31-889 limits assumed): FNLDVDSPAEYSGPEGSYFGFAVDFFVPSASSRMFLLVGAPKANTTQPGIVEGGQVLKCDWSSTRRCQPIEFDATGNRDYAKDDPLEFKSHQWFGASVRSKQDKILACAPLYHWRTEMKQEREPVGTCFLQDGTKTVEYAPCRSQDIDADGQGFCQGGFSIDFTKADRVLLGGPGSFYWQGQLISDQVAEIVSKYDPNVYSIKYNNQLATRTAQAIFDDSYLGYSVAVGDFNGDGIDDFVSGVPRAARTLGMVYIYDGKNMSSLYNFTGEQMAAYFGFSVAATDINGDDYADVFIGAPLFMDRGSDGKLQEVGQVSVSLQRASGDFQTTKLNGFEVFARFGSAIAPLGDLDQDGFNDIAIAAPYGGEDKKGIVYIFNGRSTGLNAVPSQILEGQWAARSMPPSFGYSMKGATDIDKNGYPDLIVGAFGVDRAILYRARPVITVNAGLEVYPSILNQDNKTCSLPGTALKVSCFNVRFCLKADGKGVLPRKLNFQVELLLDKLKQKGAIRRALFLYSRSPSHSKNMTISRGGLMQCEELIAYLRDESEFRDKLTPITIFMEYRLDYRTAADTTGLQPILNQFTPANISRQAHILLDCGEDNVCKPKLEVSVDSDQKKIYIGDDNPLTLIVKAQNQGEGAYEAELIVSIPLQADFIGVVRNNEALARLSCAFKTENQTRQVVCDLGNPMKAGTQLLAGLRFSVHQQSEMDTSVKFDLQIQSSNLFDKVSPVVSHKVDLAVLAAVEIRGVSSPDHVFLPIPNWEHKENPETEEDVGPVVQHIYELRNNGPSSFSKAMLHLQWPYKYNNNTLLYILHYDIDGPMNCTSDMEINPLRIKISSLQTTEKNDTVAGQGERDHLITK
T1 sequence (P06756 891-1048 partner limits assumed): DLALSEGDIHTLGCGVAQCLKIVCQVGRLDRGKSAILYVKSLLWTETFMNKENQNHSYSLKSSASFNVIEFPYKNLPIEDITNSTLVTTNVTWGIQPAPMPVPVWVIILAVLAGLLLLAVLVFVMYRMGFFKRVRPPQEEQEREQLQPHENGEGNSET
T1 sequence (P05106 27-788): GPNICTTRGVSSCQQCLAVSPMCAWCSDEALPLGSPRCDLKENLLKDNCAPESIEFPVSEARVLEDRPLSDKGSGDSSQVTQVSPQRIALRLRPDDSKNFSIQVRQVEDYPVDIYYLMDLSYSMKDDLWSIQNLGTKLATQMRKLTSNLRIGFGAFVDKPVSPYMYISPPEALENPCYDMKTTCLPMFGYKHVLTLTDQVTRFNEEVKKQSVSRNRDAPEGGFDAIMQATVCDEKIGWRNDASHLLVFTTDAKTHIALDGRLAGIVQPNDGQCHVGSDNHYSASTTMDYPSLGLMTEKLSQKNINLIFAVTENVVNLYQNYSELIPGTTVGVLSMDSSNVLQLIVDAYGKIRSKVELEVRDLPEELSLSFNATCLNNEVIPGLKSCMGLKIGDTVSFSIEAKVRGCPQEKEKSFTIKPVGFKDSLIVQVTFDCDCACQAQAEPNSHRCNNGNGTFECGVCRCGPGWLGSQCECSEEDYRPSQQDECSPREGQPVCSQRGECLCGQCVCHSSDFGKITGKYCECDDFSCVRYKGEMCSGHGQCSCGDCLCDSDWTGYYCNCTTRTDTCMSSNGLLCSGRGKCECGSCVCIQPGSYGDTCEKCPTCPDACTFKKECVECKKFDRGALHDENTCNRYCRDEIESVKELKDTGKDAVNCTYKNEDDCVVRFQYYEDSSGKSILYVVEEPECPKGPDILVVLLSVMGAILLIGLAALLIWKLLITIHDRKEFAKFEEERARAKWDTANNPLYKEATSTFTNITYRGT

For the compound `N=C(N)NCCOc1ccc(C(=O)NC[C@H](NC(=O)Nc2ccc(F)cc2)C(=O)O)c(O)c1` [Example 181, (2S)-3-{[4-(2-{[amino(imino)methyl]amino}ethoxy)-2-hydroxybenzoyl]amino}-2-{[(4-fluoroanilino)carbonyl]amino}propanoic acid], the pIC50 is 4.71.

On to `CCCCCCCCOC(=O)N[C@@H](CNC(=O)c1ccc(OCCNC(=O)NCc2cccnc2)cc1O)C(=O)O` [Example 242, (2S)-3-({2-hydroxy-4-[2-({[(pyridin-3-ylmethyl)amino]carbonyl}-amino)ethoxy]-benzoyl}amino)-2-{[(octyloxy)carbonyl]amino}propanoic acid], for which the pIC50 was 5.10.

As for `N=C(N)NCCOc1ccc(C(=O)NC[C@H](NC(=O)Nc2ccccc2Cl)C(=O)O)c(O)c1` [Example 175, (2S)-3-{[4-(2-{[amino(imino)methyl]amino}ethoxy)-2-hydroxybenzoyl]amino}-2-{[(2-chloroanilino)carbonyl]amino}propanoic acid], the pIC50 is 5.42.

On to `O=C(Nc1ccc(F)cc1)N[C@@H](CNC(=O)c1ccc(OCCNc2ncccn2)cc1O)C(=O)O` [Example 87, (2S)-2-{[(4-fluoroanilino)carbonyl]amino}-3-({2-hydroxy-4-[2-(pyrimidin-2-ylamino)ethoxy]benzoyl}amino)propanoic acid], for which the pIC50 is less than 6.00.

For the compound `N=C(N)NCCOc1ccc(C(=O)NC[C@H](NC(=O)/C=C/c2ccccc2)C(=O)O)c(O)c1` [Example 202, (2S)-3-{[4-(2-{[amino(imino)methyl]amino}ethoxy)-2-hydroxybenzoyl]amino}-2-{[(E)-3-phenylprop-2-enoyl]amino}propanoic acid], the pIC50 is less than 6.00.

As to `N=C(N)NCCOc1ccc(C(=O)NC[C@H](NC(=O)Nc2cccc3ccccc23)C(=O)O)c(O)c1` [Example 184, (2S)-3-{[4-(2-{[amino(imino)methyl]amino}ethoxy)-2-hydroxybenzoyl]amino}-2-{[(1-naphthylamino)carbonyl]amino}propanoic acid], the pIC50 is 4.75.

For the compound `Cc1ccc(NC(=O)N[C@@H](CNC(=O)c2ccc(OCCNC3=NCCCN3)cc2O)C(=O)O)cc1` [Example 23, (2S)-3-({2-hydroxy-4-[2-(1,4,5,6-tetrahydropyrimidin-2-ylamino)ethoxy]benzoyl}-amino)-2-[(4-toluidinocarbonyl)amino]propanoic acid], the pIC50 was 5.99.

In the case of `CCOC(=O)CC(NC(=O)c1ccc(OCCNC2=NCCCN2)cc1O)c1cccnc1` (stereo not drawn) [Example 283, 3-[2-Hydroxy-4-[2-(3,4,5,6-tetrahydropyrimidin-2-ylamino)ethoxy]benzoylamino]-3-pyridin-3-ylpropionic acid ethyl ester dihydrocloride], the pIC50 was 3.91.

On to `N=C(N)NCCOc1ccc(C(=O)NC[C@H](NC(=O)CCc2ccccc2)C(=O)O)c(O)c1` [Example 200, (2S)-3-{[4-(2-{[amino(imino)methyl]amino}ethoxy)-2-hydroxybenzoyl]amino}-2-[(3-phenylpropanoyl)amino]propanoic acid], for which the pIC50 was less than 6.00.

For `CCCCCCCCNC(=O)N[C@@H](CNC(=O)c1ccc(OCCNc2ncccn2)cc1O)C(=O)O` [Example 94, (2S)-3-({2-hydroxy-4-[2-(pyrimidin-2-ylamino)ethoxy]benzoyl}amino)-2-{[(octylamino)carbonyl]amino}propanoic acid], the pIC50 is less than 6.00.

On to `Cc1cc(C(=O)N[C@@H](CNC(=O)c2ccc(OCCNC(=N)N)cc2O)C(=O)O)c(C)o1` [Example 211, (2S)-3-{[4-(2-{[amino(imino)methyl]amino}ethoxy)-2-hydroxybenzoyl]amino}-2-[(2,5-dimethyl-3-furoyl)amino]propanoic acid], for which the pIC50 was less than 6.00.

In the case of `C=CCOC(=O)N[C@@H](CNC(=O)c1ccc(OCCNC2=NCCCN2)cc1O)C(=O)O` [Example 6, (2S)-2-{[(allyloxy)carbonyl]amino}-3-({2-hydroxy-4-[2-(1,4,5,6-tetrahydropyrimidin-2-ylamino)ethoxy]benzoyl}amino)propanoic acid], the pIC50 is 6.97.

For `N=C(N)NCCOc1ccc(C(=O)NC[C@H](NC(=O)c2ccccc2Br)C(=O)O)c(O)c1` [Example 212, (2S)-3-{[4-(2-{[amino(imino)methyl]amino}ethoxy)-2-hydroxybenzoyl]amino-}-2-[(2-bromobenzoyl)amino]propanoic acid], the pIC50 was 4.88.

`N=C(N)NCCOc1ccc(C(=O)NC[C@H](NC(=O)c2ccc(Cl)cc2)C(=O)O)c(O)c1` [Example 206, (2S)-3-{[4-(2-{[amino(imino)methyl]amino}ethoxy)-2-hydroxybenzoyl]amino}-2-[(4-chlorobenzoyl)amino]propanoic acid]: the pIC50 was less than 6.00.

Turning to `Cc1ccccc1C(=O)N[C@@H](CNC(=O)c1ccc(OCCNC(=N)N)cc1O)C(=O)O` [Example 204, (2S)-3-{[4-(2-{[amino(imino)methyl]amino}ethoxy)-2-hydroxybenzoyl]amino}-2-[(2-methylbenzoyl)amino]propanoic acid], the pIC50 is 5.13.

Turning to `Nc1ccccc1CNC(=O)NCCOc1ccc(C(=O)NC[C@H](NC(=O)OCc2ccccc2)C(=O)O)c(O)c1` [Example 271, (2S)-3-({4-[2-({[(2-aminobenzyl)amino]carbonyl}amino)ethoxy]-2-hydroxybenzoyl}-amino)-2-{[(benzyloxy)carbonyl]amino}propanoic acid], the pIC50 was 4.86.

For `CCOC(=O)N[C@@H](CNC(=O)c1ccc(OCCNc2ncccn2)cc1O)C(=O)O` [Example 66, (2S)-2-[(ethoxycarbonyl)amino]-3-({2-hydroxy-4-[2-(pyrimidin-2-ylamino)-ethoxy]benzoyl}amino)propanoic acid], the pIC50 is 4.00.

Turning to `O=C(N[C@@H](CNC(=O)c1ccc(OCCNC2=NCCCCC2)cc1O)C(=O)O)OCC(Cl)(Cl)Cl` [Example 153, (2S)-3-({2-hydroxy-4-[2-(3,4,5,6-tetrahydro-2H-azepin-7-ylamino)ethoxy]benzoyl}-amino)-2-{[(2,2,2-trichloroethoxy)carbonyl]amino}propanoic acid], the pIC50 is 5.62.

As for `CC(C)(C)CC(=O)N[C@@H](CNC(=O)c1ccc(OCCNC(=N)N)cc1O)C(=O)O` [Example 194], the pIC50 is less than 6.00.

`CCCCCCCCOC(=O)N[C@@H](CNC(=O)c1ccc(OCCNC2=NCCCN2)cc1O)C(=O)O` [Example 9, (2S)-3-({2-hydroxy-4-[2-(1,4,5,6-tetrahydropyrimidin-2-ylamino)ethoxy]benzoyl}-amino)-2-{[(octyloxy)carbonyl]amino}propanoic acid]: the pIC50 is 6.96.

As for `O=C(Nc1ccccc1Cl)N[C@@H](CNC(=O)c1ccc(OCCNc2ncccn2)cc1O)C(=O)O` [Example 80, (2S)-2-{[(2-chloroanilino)carbonyl]amino}-3-({2-hydroxy-4-[2-(pyrimidin-2-ylamino)ethoxy]benzoyl}amino)propanoic acid], the pIC50 is less than 6.00.

As to `O=C(Nc1ccccc1-c1ccccc1)N[C@@H](CNC(=O)c1ccc(OCCNC2=NCCN2)cc1O)C(=O)O` [Example 116, (2S)-2-{[([1,1′-biphenyl]-2-ylamino)carbonyl]amino}-3-({4-[2-(4,5-dihydro-1H-imidazol-2-ylamino)ethoxy]-2-hydroxybenzoyl}amino)propanoic acid], the pIC50 was 5.56.

In the case of `C=CCOC(=O)N[C@@H](CNC(=O)c1ccc(OCCNC(=O)NCc2ccccc2)cc1O)C(=O)O` [Example 225, (2S)-2-{[(allyloxy)carbonyl]amino}-3-{[4-(2-{[(benzylamino)carbonyl]amino}-ethoxy)-2-hydroxybenzoyl]amino}propanoic acid], the pIC50 was 5.30.

With `COc1ccccc1NC(=O)N[C@@H](CNC(=O)c1ccc(OCCNC(=N)N)cc1O)C(=O)O` [Example 174, (2S)-3-{[4-(2-{[amino(imino)methyl]amino}ethoxy)-2-hydroxybenzoyl]amino}-2-{[(2-methoxyanilino)carbonyl]amino}propanoic acid], the pIC50 is 5.41.

Take `O=C(NC1CCCCC1)N[C@@H](CNC(=O)c1ccc(OCCNc2ncccn2)cc1O)C(=O)O` [Example 90, (2S)-2-{[(cyclohexylamino)carbonyl]amino}-3-({2-hydroxy-4-[2-(pyrimidin-2-ylamino)ethoxy]benzoyl}amino)propanoic acid]: the pIC50 was less than 6.00.

As to `O=C(Nc1ccccc1-c1ccccc1)N[C@@H](CNC(=O)c1ccc(OCCNC2=NCCCN2)cc1O)C(=O)O` [Example 29, (2S)-2-{[([1,1′-biphenyl]-2-ylamino)carbonyl]amino}-3-({2-hydroxy-4-[2-(1,4,5,6-tetrahydropyrimidin-2-ylamino)ethoxy]benzoyl}amino)propanoic acid], the pIC50 is 6.39.

For `CCCOC(=O)N[C@@H](CNC(=O)c1ccc(OCCNc2ncccn2)cc1O)C(=O)O` [Example 67, (2S)-3-({2-hydroxy-4-[2-(pyrimidin-2-ylamino)ethoxy]benzoyl}amino)-2-[(propoxycarbonyl)amino]propanoic acid], the pIC50 is 4.00.

Regarding `N=C(N)NCCOc1ccc(C(=O)NC[C@H](NC(=O)Nc2ccccc2Br)C(=O)O)c(O)c1` [Example 176, (2S)-3-{[4-(2-{[amino(imino)methyl]amino}ethoxy)-2-hydroxybenzoyl]amino}-2-{[(2-bromoanilino)carbonyl]amino}propanoic acid], the pIC50 is 5.67.

`O=C(NCCOc1ccc(C(=O)NC[C@H](NC(=O)OCc2ccccc2)C(=O)O)c(O)c1)NCc1ccncc1` [Example 247, (2S)-2-{[(benzyloxy)carbonyl]amino}-3-({2-hydroxy-4-[2-({[(pyridin-4-ylmethyl)amino]carbonyl}amino)ethoxy]benzoyl}amino)propanoic acid]: the pIC50 is 5.26.

For the compound `O=C(Nc1ccccc1Cl)N[C@@H](CNC(=O)c1ccc(OCCNC2=NCCCN2)cc1O)C(=O)O` [Example 27, (2S)-2-{[(2-chloroanilino)carbonyl]amino}-3-({2-hydroxy-4-[2-(1,4,5,6-tetrahydropyrimidin-2-ylamino)ethoxy]benzoyl}amino)propanoic acid], the pIC50 was 6.48.
